Measured values reported in publication PMC8532876, “Can Immobilized Artificial Membrane Chromatography Support the Characterization of Antimicrobial Peptide Origin Derivatives?” (Antibiotics, 2021).
Ends that are not written are not given here.

Experiment: IAM-HPLC, chromatographic hydrophobicity index on an immobilized artificial membrane column
Type: physicochemical
Settings: IAM.PC.DD2 column, gradient 0–85% acetonitrile in 10-mM phosphoric buffer pH 7.4, 30.0 °C; calculated from retention time with calibration curve
Protocol: All HPLC experiments were carried out using a Prominence-1 LC-2030C 3D HPLC system (Shimadzu, Tokyo, Japan) equipped with an IAM.PC.DD2 column (10 mm × 4.6 mm; particle size 10.0 µm with an IAM guard column; Regis Technologies, Austin Ave, Morton Grove, IL, USA) and diode array detection (DAD). The HPLC system was controlled by LabSolution software (version 5.90, Shimadzu, Japan). The stock solutions of the solutes were diluted to obtain 100-µg/mL concentrations, and the injected volume was 10 µL, which was used for the analytes. The IAM-HPLC analyses were performed with a linear gradient of 0–85% in phase B (where phase A was 10-mM phosphoric buffer at pH 7.4, and phase B was acetonitrile) at a flow rate of 1.5 mL/min. The ultrapure water used for the mobile phase preparation was purified by the Millipore Direct-Q 3 UVWater Purification System (Millipore Corporation, Bedford, MA, USA). The other reagents used for the preparation of the mobile phase: acetonitrile, sodium phosphate dibasic dehydrate, and sodium phosphate monobasic monohydrate (Sigma-Aldrich, Steinheim, Germany) were analytical grade. During the chromatographic analysis, the temperature of the column was constant at 30.0 °C, and the analysis time was 6.5 min. The CHIAM indices of the target solutes were obtained using a calibration set of the reference substances using the protocol developed by Valko and coworkers. The reference substances were purchased, respectively: octanonophenone and butyrophenone acetanilide (Alfa Aesar, Haverhill, MA, USA); acetaminophen, acetophenone, levofloxacin, and ciprofloxacin (Sigma-Aldrich, Steinheim, Germany); and heptanophenone, hexanophenone, valerophenone, propiophenone, and acetophenone (Acros Organic, Pittsburg, PA, USA). Figure 2 presents a correlations plot of the CHIIAM indices of the model substances and experimentally determined retention times.

Compound | CHIIAM
GLFDVIKASVIGGL-NH2 [(1–7)–(10–16) Citropin, analog of citropin 1.1] | 37.09
GLFDVIK-NH2 [(1–7) Citropin, analog of citropin 1.1] | 42.15
KVASVIGGL-NH2 [(8–16) Citropin, analog of citropin 1.1] | 45.95
GLFDVVIGGL-NH2 [(1–5)–(12–16) Citropin, analog of citropin 1.1] | 28.66
DVIKKVASVIGGL-NH2 [(4–16) Citropin, analog of citropin 1.1] | 38.24
O=C(O)c1cn(C2CC2)c2cc(N3CCNCC3)c(F)cc2c1=O [Ciprofloxacin] | 19.70
DVIKKVASVIG-NH2 [(4–14) Citropin, analog of citropin 1.1] | 27.85
C[C@H]1COc2c(N3CCN(C)CC3)c(F)cc3c(=O)c(C(=O)O)cn1c23 [Levofloxacin] | 24.88

Experiment: not given
Set-up: method as in PMID 10906732, PMID 27084527
Settings: model substances of the IAM-HPLC calibration curve, protocol of Valko and coworkers ref 13, 14; cited from earlier work

Compound | CHIIAM of calibration set reference substances
CC(=O)c1ccccc1 [acetable] | 17.20
CCCCCCC(=O)c1ccccc1 [heptanophenone] | 45.70
CCCCCCCC(=O)c1ccccc1 [octanophenone] | 49.4
CCCCCC(=O)c1ccccc1 [hexanophenone] | 41.80
CC(=O)Nc1ccccc1 [acetanilidine] | 11.50
CC(=O)Nc1ccc(O)cc1 [acetaminophen] | 2.90
CCCCC(=O)c1ccccc1 [valerophenone] | 37.30
CCC(=O)c1ccccc1 [propiohenone] | 25.90
CCCC(=O)c1ccccc1 [butyrophenone] | 32.00
